{
  "source": "patent US4803217A",
  "about": "“Hapalindolinone compounds as vassopressin antagonists” (Merck & Co., Inc., priority 1986, dated 1989)",
  "key": {"[1]": {"molecular_target": "T1, V1 (pressor) vasopressin receptor, rat liver crude membrane preparation (Rattus norvegicus, UniProt P30560)", "T1 construct": "crude membrane preparation of rat liver (V1 receptor); from tissue; host or cells: rat liver, crude membrane preparation", "T1 sequence (P30560 whole entry)": "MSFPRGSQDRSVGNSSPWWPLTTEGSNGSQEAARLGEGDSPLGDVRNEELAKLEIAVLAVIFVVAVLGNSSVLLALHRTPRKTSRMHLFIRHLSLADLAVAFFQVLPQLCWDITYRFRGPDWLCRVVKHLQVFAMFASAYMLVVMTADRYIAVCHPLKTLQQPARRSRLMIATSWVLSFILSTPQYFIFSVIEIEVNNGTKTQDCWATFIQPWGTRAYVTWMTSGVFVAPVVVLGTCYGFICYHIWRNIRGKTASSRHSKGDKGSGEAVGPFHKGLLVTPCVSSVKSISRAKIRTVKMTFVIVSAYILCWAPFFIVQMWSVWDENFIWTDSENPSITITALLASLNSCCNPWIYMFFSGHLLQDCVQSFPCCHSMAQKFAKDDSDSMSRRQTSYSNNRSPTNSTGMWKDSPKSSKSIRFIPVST", "test": "[3H]Arginine Vasopressin Binding Assay, liver (V1)", "settings": "rat liver membranes; mean, n = 3; read-out: IC50 Values, 3H-Arg8-Vasopressin Binding, Liver (V1)", "text": "(§1) The table summarizes the in vitro potency of the compound to compete for ^3 H-vasopressin binding at two proposed vasopressin receptor subtypes (V1, V2), as well as to inhibit vasopressin-stimulated adenylate cyclase-activity, a further measure of vasopressin antagonism.\n(§2) The [^3 H]Arginine Vasopressin Binding Assay is an in vitro procedure which was adapted from the method of Guillon et al., Eur. J. Pharmacol. 85: 219-304 (1982). It measures the relative affinity of the compound for vasopressin receptor(s) labelled by [^3 H]vasopressin. Vasopressin receptors have been divided into two subtypes pharmacollogically: the V1 (pressor)-receptor found in liver and vascular smooth muscle and the V2 (antidiuretic) receptor found in kidney medulla. The binding assay uses a crude membrane preparation of rat liver (V1 receptor) or kidney medulla (V2 receptor) which is incubated with [^3 H]vaspopressin in the presence or absence of the test compound. The IC50 values (concentrations to inhibit [^3 H]vasopressin binding by 50%) for the compound (see Table VI) are measures of their potencies and are inversely related to their affinities."}, "[2]": {"molecular_target": "T2, V2 (antidiuretic) vasopressin receptor, kidney medulla crude membrane preparation (Rattus norvegicus, UniProt Q00788)", "T2 construct": "crude membrane preparation of rat liver (V1 receptor) or kidney medulla (V2 receptor); from tissue; host or cells: kidney medulla, crude membrane preparation", "T2 sequence (Q00788 whole entry)": "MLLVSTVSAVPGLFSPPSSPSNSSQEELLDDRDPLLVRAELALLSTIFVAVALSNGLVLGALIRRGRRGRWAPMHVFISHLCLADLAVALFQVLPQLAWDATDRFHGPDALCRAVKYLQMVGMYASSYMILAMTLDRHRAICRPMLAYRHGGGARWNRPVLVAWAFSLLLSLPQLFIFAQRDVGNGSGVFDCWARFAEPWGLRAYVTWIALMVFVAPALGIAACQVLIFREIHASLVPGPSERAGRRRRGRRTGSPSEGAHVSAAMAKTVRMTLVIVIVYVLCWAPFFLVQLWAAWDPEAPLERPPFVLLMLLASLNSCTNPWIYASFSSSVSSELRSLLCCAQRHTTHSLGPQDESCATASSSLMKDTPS", "test": "[3H]Arginine Vasopressin Binding Assay, kidney medulla (V2)", "settings": "kidney medulla membranes; mean with standard error, n = 3; read-out: IC50 Values, 3H-Arg8-Vasopressin Binding, Kidney (V2)", "text": "as §1, §2"}, "[3]": {"molecular_target": "vasopressin-stimulated adenylate cyclase, Kidney (V2)", "test": "Inhibition of vasopressin-stimulated adenylate cyclase in kidney medulla (V2 antagonism)", "type": "biochemical", "settings": "conversion of ATP to cAMP, mean, n = 2, read-out: IC50 Values, AVP-stimulated Ad. Cyclase, Kidney (V2)", "text": "as §1\nVasopressin exerts its antidiuretic effects on the kidney through the stimulation of adenylate cyclase activity. Vasopressin-stimulated adenylate cyclase in kidney medulla, therefore, is used as a functional assay to determine the potencies of the test compound as V2 -vasopressin antagonists. In this assay, the IC50 value obtained for the compound IA (see Table IV) is a measure of its potency to inhibit the vasopressin-stimulated conversion of ATP to CAMP by adenylate cyclase. This method was adapted from Seamon et al., PNAS 78: 3363-3367 (1981)."}},
  "data": [
    {"smiles": "[C-]#[N+]C12C(C(C(=C)C)CC(Cl)C1(C)C=C)C21C(=O)Nc2ccccc21", "note": "(stereo not drawn) [Formula IA, Hapalindolinone A]", "values": [
      {"measurement": "IC50", "setting": "[1]", "result": "> 100", "unit": "µM"},
      {"measurement": "IC50", "setting": "[2]", "result": "37.5 ± 7.6", "unit": "µM"},
      {"measurement": "IC50", "setting": "[3]", "result": 44.6, "unit": "µM"}
    ]}
  ]
}
